According to patent publication US9694016B2 (Novartis AG, priority 2013, dated 2017):
Where two headings read alike, the source gives them in different places.

Molecular target: b-Raf (V600E) (Homo sapiens (Human), UniProt P15056, V600E)
Settings: read-out: b-Raf IC-50, AlphaScreen
[1] = 60 min pre-incubation, reaction 3 hours at room temperature
[2] = 60 min pre-incubation, 3 hours reaction

b-Raf (V600E), sequence (P15056 whole entry V600E): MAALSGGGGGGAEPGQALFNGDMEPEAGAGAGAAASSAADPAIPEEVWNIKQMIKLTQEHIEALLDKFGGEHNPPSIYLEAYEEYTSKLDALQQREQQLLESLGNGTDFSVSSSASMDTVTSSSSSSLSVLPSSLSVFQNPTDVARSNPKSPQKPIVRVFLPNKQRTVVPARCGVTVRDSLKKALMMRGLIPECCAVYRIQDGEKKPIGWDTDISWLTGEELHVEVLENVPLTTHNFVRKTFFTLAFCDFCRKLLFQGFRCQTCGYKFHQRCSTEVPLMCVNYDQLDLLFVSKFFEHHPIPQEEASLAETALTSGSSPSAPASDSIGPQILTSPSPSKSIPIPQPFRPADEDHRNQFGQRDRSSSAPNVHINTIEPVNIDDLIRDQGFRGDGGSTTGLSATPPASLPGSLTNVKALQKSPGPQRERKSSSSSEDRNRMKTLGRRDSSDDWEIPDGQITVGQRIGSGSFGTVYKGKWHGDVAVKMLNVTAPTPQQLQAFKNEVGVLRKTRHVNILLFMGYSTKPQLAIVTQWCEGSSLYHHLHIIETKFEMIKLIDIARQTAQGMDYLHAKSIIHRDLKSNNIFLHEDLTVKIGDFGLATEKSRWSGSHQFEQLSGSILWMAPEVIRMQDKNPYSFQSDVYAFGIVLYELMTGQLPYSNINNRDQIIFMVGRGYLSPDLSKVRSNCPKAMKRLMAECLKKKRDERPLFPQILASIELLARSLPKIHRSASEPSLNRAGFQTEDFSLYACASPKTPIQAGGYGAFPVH

Row | SMILES | IC50 [1] | IC50 [2] | IC50 (Table 2, 3 hours reaction)
1 | Cc1ncc(NC(=O)c2ccnc(C3(C#N)CC3)c2)cc1-c1cc(N2CCOCC2)nc(N2CC(C)(O)C2)c1 [Example 1109, 2-(1-cyanocyclopropyl)-N-(2′-(3-hydroxy-3-methylazetidin-1-yl)-2-methyl-6′-morpholino-[3,4′-bipyridin]-5-yl)isonicotinamide] | 8.02 nM | – | –
2 | Cc1ccc(NC(=O)c2ccnc(S(C)(=O)=O)c2)cc1-c1cc(N2CCOCC2)n2nccc2n1 [Example 806] | – | 1.1 nM | –
3 | Cc1ccc(NC(=O)c2ccnc(C(C)(C)C#N)c2)cc1-c1cc(N2CCOCC2)c(=O)n(CCC#N)c1 [Example 335, N-(3-(1-(2-cyanoethyl)-5-morpholino-6-oxo-1,6-dihydropyridin-3-yl)-4-methylphenyl)-2-(2-cyanopropan-2-yl)isonicotinamide] | – | – | 4.4 nM
4 | Cc1ncc(NC(=O)c2cccc(C(F)(F)F)c2)cc1-c1cnc(OC2CCCC(O)C2)c(N2CCOCC2)c1 (single isomer, unassigned) [Example 320, N-(6′-((3-hydroxycyclohexyl)oxy)-2-methyl-5′-morpholino-[3,3′-bipyridin]-5-yl)-3-(trifluoromethyl)benzamide] | – | – | 1.7 nM
5 | Cc1ccc(NC(=O)c2ccnc(C(C)(C)O)c2)cc1-c1cc(OC2CCOCC2)nc(N2CCOCC2)c1 [Example 1150, 2-(2-hydroxypropan-2-yl)-N-(4-methyl-3-(2-morpholino-6-((tetrahydro-2H-pyran-4-yl)oxy)pyridin-4-yl)phenyl)isonicotinamide] | 1.6 nM | – | –
6 | Cc1ccc(C(=O)Nc2cccc(C(F)(F)F)c2)cc1-c1cc(N2CCOCC2)ccn1 [Example 64, 4-methyl-3-(4-morpholinopyridin-2-yl)-N-(3-(trifluoromethyl)phenyl)benzamide] | – | – | 0.9 nM
7 | Cc1ccc(NC(=O)c2ccccc2)cc1-c1cc(N2CCOCC2)n(C)c(=O)c1 [Example 473, N-(4-methyl-3-(1-methyl-6-morpholino-2-oxo-1,2-dihydropyridin-4-yl)phenyl)benzamide] | – | 12.1 nM | –
8 | Cc1ccc(NC(=O)c2cnncc2C(F)F)cc1-c1cc(N2CCOCC2)nc(N2CC(O)C2)c1 [Example 1075, 5-(difluoromethyl)-N-(3-(2-(3-hydroxyazetidin-1-yl)-6-morpholinopyridin-4-yl)-4-methylphenyl)pyridazine-4-carboxamide] | 682 nM | – | –
9 | Cc1ncc(NC(=O)c2ccnc(C(C)(C)C#N)c2)cc1-c1cc(N2CCOCC2)nc(N[C@@H](C)CO)n1 [Example 744, (S)-2-(2-cyanopropan-2-yl)-N-(5-(2-((1-hydroxypropan-2-yl)amino)-6-morpholinopyrimidin-4-yl)-6-methylpyridin-3-yl)isonicotinamide] | – | 42.7 nM | –
10 | Cc1ncc(NC(=O)c2cc(CN(C)C)cc(C(F)(F)F)c2)cc1-c1cnc(N(C)C)c(N2CCOCC2)c1 [Example 269, N-(6′-(dimethylamino)-2-methyl-5′-morpholino-[3,3′-bipyridin]-5-yl)-3-((dimethylamino)methyl)-5-(trifluoromethyl)benzamide] | – | – | 2.4 nM
11 | Cc1ncc(NC(=O)c2ccnc(C(C)(F)F)c2)cc1-c1cncc(N2CCOCC2)n1 [Example 533, 2-(1,1-difluoroethyl)-N-(6-methyl-5-(6-morpholinopyrazin-2-yl)pyridin-3-yl)isonicotinamide] | – | 4.4 nM | –
12 | Cc1ncc(NC(=O)c2cnnc(C(F)(F)F)c2)cc1-c1cc(N2CCOCC2)n2nccc2n1 [Example 801, N-(6-methyl-5-(7-morpholinopyrazolo[1,5-a]pyrimidin-5-yl)pyridin-3-yl)-6-(trifluoromethyl)pyridazine-4-carboxamide] | – | 3 nM | –
13 | Cc1ncc(NC(=O)c2cccc(C(F)(F)F)c2)cc1-c1cc(N2CCOCC2)nc(N(C)C)n1 [Example 760, N-(5-(2-(dimethylamino)-6-morpholinopyrimidin-4-yl)-6-methylpyridin-3-yl)-3-(trifluoromethyl)benzamide] | – | 11.3 nM | –
14 | CCOc1ncc(-c2cc(NC(=O)c3ccnc(C(C)(C)C#N)c3)ccc2C)cc1N1CCOCC1 [Example 161, 2-(2-cyanopropan-2-yl)-N-(3-(6-ethoxy-5-morpholinopyridin-3-yl)-4-methylphenyl)isonicotinamide] | – | – | 2.9 nM
15 | Cc1ncc(NC(=O)c2cccc(C(F)(F)F)c2)cc1-c1cc(N2CCOCC2)nc(N2CCOCC2)c1 [Example 77, N-(2-methyl-2′,6′-dimorpholino-[3,4′-bipyridin]-5-yl)-3-(trifluoromethyl)benzamide] | – | – | 0.6 nM
16 | Cc1ccc(NC(=O)c2cccc(C(F)(F)F)c2)cc1-c1cc(N2CCOCC2)nc(N2CC(O)C2)n1 [Example 765, N-(3-(2-(3-hydroxyazetidin-1-yl)-6-morpholinopyrimidin-4-yl)-4-methylphenyl)-3-(trifluoromethyl)benzamide] | – | 1 nM | –
17 | Cn1cc(-c2cc(C(=O)Nc3cccc(C(C)(C)C#N)c3)ccc2Cl)cc(N2CCOCC2)c1=O [Example 427, 4-chloro-N-(3-(2-cyanopropan-2-yl)phenyl)-3-(1-methyl-5-morpholino-6-oxo-1,6-dihydropyridin-3-yl)benzamide] | – | – | 6 nM
18 | Cc1ccc(NC(=O)c2cnnc(C(F)(F)F)c2)cc1-c1cc(N2CCOCC2)nc(N2CC(C)(O)C2)c1 [Example 1073, N-(3-(2-(3-hydroxy-3-methylazetidin-1-yl)-6-morpholinopyridin-4-yl)-4-methylphenyl)-6-(trifluoromethyl)pyridazine-4-carboxamide] | 2.99 nM | – | –
19 | Cc1ncc(NC(=O)c2ccnc(C(C)(F)F)c2)cc1-c1cc(N2CCOCC2)nc(N2CC(O)C2)c1 [Example 1080, 2-(1,1-difluoroethyl)-N-(2′-(3-hydroxyazetidin-1-yl)-2-methyl-6′-morpholino-[3,4′-bipyridin]-5-yl)isonicotinamide] | 12.9 nM | – | –
20 | Cc1ccc(NC(=O)c2ccnc(C(C)(C)C#N)c2)cc1-c1cc(N2CCOCC2)c2nccn2n1 [Example 844, 2-(2-cyanopropan-2-yl)-N-(4-methyl-3-(8-morpholinoimidazo[1,2-b]pyridazin-6-yl)phenyl)isonicotinamide] | – | 1.7 nM | –
21 | Cc1ncc(NC(=O)c2ccnc(C(F)(F)F)c2)cc1-c1cc(N2CCOCC2)nc(N2CC(C)(O)C2)c1 [Example 1104, N-(2′-(3-hydroxy-3-methylazetidin-1-yl)-2-methyl-6′-morpholino-[3,4′-bipyridin]-5-yl)-2-(trifluoromethyl)isonicotinamide] | 7.64 nM | – | –
22 | Cc1ccc(NC(=O)c2cccc(S(C)(=O)=O)c2)cc1-c1ccnc(N2CCOCC2)c1 [Example 68, N-(4-methyl-3-(2-morpholinopyridin-4-yl)phenyl)-3-(methylsulfonyl)benzamide] | – | – | 0.6 nM
23 | Cc1ncc(NC(=O)c2ccnc(C(F)F)c2)cc1-c1cc(N2CCOCC2)nc(N2CC(C)(O)C2)c1 [Example 1103, 2-(difluoromethyl)-N-(2′-(3-hydroxy-3-methylazetidin-1-yl)-2-methyl-6′-morpholino-[3,4′-bipyridin]-5-yl)isonicotinamide] | 6.7 nM | – | –
24 | Cc1ccc(NC(=O)c2ccnc(C(F)F)c2)cc1-c1cc(N2CCOCC2)nc(N2CC(O)C2)c1 [Example 1067, 2-(difluoromethyl)-N-(3-(2-(3-hydroxyazetidin-1-yl)-6-morpholinopyridin-4-yl)-4-methylphenyl)isonicotinamide] | 0.6 nM | – | –
